According to PubChem BioAssay (NCI):
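GI50 = concentration required for 50% inhibition of growth. TGI denotes the concentration required for complete inhibition of growth.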

Tests used:
Assay in all cases: inhibition of tumour cell growth, NCI panel, 384-well format
MOLT-4 leukemia = test system: MOLT-4 leukemia
A498 renal = test system: A498 renal
SK-MEL-5 melanoma = test system: SK-MEL-5 melanoma
KM12 colon = test system: KM12 colon
SF-268 CNS = test system: SF-268 CNS
RXF 393 renal = test system: RXF 393 renal
SK-OV-3 ovarian = test system: SK-OV-3 ovarian
NCI-H522 lung = test system: NCI-H522 lung
DU-145 prostate = test system: DU-145 prostate
MDA-MB-468 breast = test system: MDA-MB-468 breast
SF-539 CNS = test system: SF-539 CNS
786-0 renal = test system: 786-0 renal
COLO 205 colon = test system: COLO 205 colon
MDA-MB-231 breast = test system: MDA-MB-231 breast
HCT-15 colon = test system: HCT-15 colon
HL-60(TB) leukemia = test system: HL-60(TB) leukemia
UO-31 renal = test system: UO-31 renal
SF-295 CNS = test system: SF-295 CNS
RPMI-8226 leukemia = test system: RPMI-8226 leukemia
HCT-116 colon = test system: HCT-116 colon
M14 melanoma = test system: M14 melanoma
SN12C renal = test system: SN12C renal
BT-549 breast = test system: BT-549 breast
NCI-H460 NSCLC = test system: NCI-H460 NSCLC
CAKI-1 renal = test system: CAKI-1 renal
SK-MEL-28 melanoma = test system: SK-MEL-28 melanoma
OVCAR-8 ovarian = test system: OVCAR-8 ovarian
TK-10 renal = test system: TK-10 renal
T-47D breast = test system: T-47D breast
NCI-H23 lung = test system: NCI-H23 lung
SNB-19 CNS = test system: SNB-19 CNS
NCI/ADR-RES ovarian = test system: NCI/ADR-RES ovarian
NCI-H226 lung = test system: NCI-H226 lung
OVCAR-4 ovarian = test system: OVCAR-4 ovarian
MCF7 breast = test system: MCF7 breast
MDA-MB-435 melanoma = test system: MDA-MB-435 melanoma
SR leukemia = test system: SR leukemia
SW-620 colon = test system: SW-620 colon
HCC-2998 colon = test system: HCC-2998 colon
IGROV1 ovarian = test system: IGROV1 ovarian
SNB-75 CNS = test system: SNB-75 CNS
A549 NSCLC = test system: A549 NSCLC
UACC-62 melanoma = test system: UACC-62 melanoma
ACHN renal = test system: ACHN renal
OVCAR-3 ovarian = test system: OVCAR-3 ovarian
U251 glioblastoma = test system: U251 glioblastoma
EKVX NSCLC = test system: EKVX NSCLC
PC-3 prostate = test system: PC-3 prostate
NCI-H322M lung = test system: NCI-H322M lung
HOP-92 NSCLC = test system: HOP-92 NSCLC
LOX IMVI melanoma = test system: LOX IMVI melanoma
HOP-62 NSCLC = test system: HOP-62 NSCLC
MALME-3M melanoma = test system: MALME-3M melanoma
OVCAR-5 ovarian = test system: OVCAR-5 ovarian
HS 578T breast = test system: HS 578T breast
UACC-257 melanoma = test system: UACC-257 melanoma

For C#CCC(Cc1cnc2nc(N)nc(N)c2n1)c1ccc(C(=O)N[C@@H](CCC(=O)O)C(=O)O)cc1 (some centres not stated), the GI50 (MOLT-4 leukemia) was < 0.01 µM, the TGI (MOLT-4 leukemia) was < 0.01 µM and the GI50 (A498 renal) was < 0.01 µM. The TGI (A498 renal) was < 0.01 µM, the GI50 (SK-MEL-5 melanoma) was < 0.01 µM and the TGI (SK-MEL-5 melanoma) was < 0.01 µM. The GI50 (KM12 colon) was < 0.01 µM, the TGI (KM12 colon) was > 100 µM and the GI50 (SF-268 CNS) was < 0.01 µM. The TGI (SF-268 CNS) was < 0.01 µM, the GI50 (RXF 393 renal) was < 0.01 µM and the TGI (RXF 393 renal) was < 0.01 µM. The GI50 (SK-OV-3 ovarian) was < 0.01 µM, the TGI (SK-OV-3 ovarian) was < 0.01 µM and the GI50 (NCI-H522 lung) was < 0.01 µM. For the same molecule, the TGI (NCI-H522 lung) was < 0.01 µM, the GI50 (DU-145 prostate) was < 0.01 µM and the TGI (DU-145 prostate) was > 100 µM. For the same molecule, the GI50 (MDA-MB-468 breast) was < 0.01 µM, the TGI (MDA-MB-468 breast) was < 0.01 µM and the GI50 (SF-539 CNS) was < 0.01 µM. The TGI (SF-539 CNS) was < 0.01 µM, the GI50 (786-0 renal) was < 0.01 µM and the TGI (786-0 renal) was < 0.01 µM. The GI50 (COLO 205 colon) was < 0.01 µM, the TGI (COLO 205 colon) was < 0.01 µM and the GI50 (MDA-MB-231 breast) was 0.905 µM. The TGI (MDA-MB-231 breast) was 2.41 µM, the GI50 (HCT-15 colon) was < 0.01 µM and the TGI (HCT-15 colon) was > 100 µM. The GI50 (HL-60(TB) leukemia) was < 0.01 µM, the TGI (HL-60(TB) leukemia) was < 0.01 µM and the GI50 (UO-31 renal) was < 0.01 µM. The TGI (UO-31 renal) was < 0.01 µM, the GI50 (SF-295 CNS) was < 0.01 µM and the TGI (SF-295 CNS) was < 0.01 µM. For the same molecule, the GI50 (RPMI-8226 leukemia) was < 0.01 µM, the TGI (RPMI-8226 leukemia) was < 0.01 µM and the GI50 (HCT-116 colon) was < 0.01 µM. For the same molecule, the TGI (HCT-116 colon) was > 100 µM, the GI50 (M14 melanoma) was < 0.01 µM and the TGI (M14 melanoma) was < 0.01 µM. The GI50 (SN12C renal) was < 0.01 µM, the TGI (SN12C renal) was < 0.01 µM and the GI50 (BT-549 breast) was < 0.01 µM. For the same molecule, the TGI (BT-549 breast) was < 0.01 µM, the GI50 (NCI-H460 NSCLC) was < 0.01 µM and the TGI (NCI-H460 NSCLC) was > 100 µM. For the same molecule, the GI50 (CAKI-1 renal) was < 0.01 µM, the TGI (CAKI-1 renal) was < 0.01 µM and the GI50 (SK-MEL-28 melanoma) was < 0.01 µM. For the same molecule, the TGI (SK-MEL-28 melanoma) was < 0.01 µM, the GI50 (OVCAR-8 ovarian) was < 0.01 µM and the TGI (OVCAR-8 ovarian) was < 0.01 µM. The GI50 (TK-10 renal) was < 0.01 µM, the TGI (TK-10 renal) was < 0.01 µM and the GI50 (T-47D breast) was < 0.01 µM. For the same molecule, the TGI (T-47D breast) was < 0.01 µM, the GI50 (NCI-H23 lung) was < 0.01 µM and the TGI (NCI-H23 lung) was < 0.01 µM. The GI50 (SNB-19 CNS) was < 0.01 µM, the TGI (SNB-19 CNS) was < 0.01 µM and the GI50 (NCI/ADR-RES ovarian) was < 0.01 µM. For the same molecule, the TGI (NCI/ADR-RES ovarian) was < 0.01 µM, the GI50 (NCI-H226 lung) was < 0.01 µM and the TGI (NCI-H226 lung) was < 0.01 µM. The GI50 (OVCAR-4 ovarian) was < 0.01 µM, the TGI (OVCAR-4 ovarian) was < 0.01 µM and the GI50 (MCF7 breast) was < 0.01 µM. For the same molecule, the TGI (MCF7 breast) was > 100 µM, the GI50 (MDA-MB-435 melanoma) was < 0.01 µM and the TGI (MDA-MB-435 melanoma) was < 0.01 µM. The GI50 (SR leukemia) was < 0.01 µM, the TGI (SR leukemia) was < 0.01 µM and the GI50 (SW-620 colon) was < 0.01 µM. For the same molecule, the TGI (SW-620 colon) was < 0.01 µM, the GI50 (HCC-2998 colon) was < 0.01 µM and the TGI (HCC-2998 colon) was > 100 µM. For the same molecule, the GI50 (IGROV1 ovarian) was < 0.01 µM, the TGI (IGROV1 ovarian) was < 0.01 µM and the GI50 (SNB-75 CNS) was < 0.01 µM. For the same molecule, the TGI (SNB-75 CNS) was < 0.01 µM, the GI50 (A549 NSCLC) was < 0.01 µM and the TGI (A549 NSCLC) was < 0.01 µM. For the same molecule, the GI50 (UACC-62 melanoma) was < 0.01 µM, the TGI (UACC-62 melanoma) was < 0.01 µM and the GI50 (ACHN renal) was < 0.01 µM. The TGI (ACHN renal) was < 0.01 µM, the GI50 (OVCAR-3 ovarian) was < 0.01 µM and the TGI (OVCAR-3 ovarian) was < 0.01 µM. The GI50 (U251 glioblastoma) was < 0.01 µM, the TGI (U251 glioblastoma) was < 0.01 µM and the GI50 (EKVX NSCLC) was < 0.01 µM. For the same molecule, the TGI (EKVX NSCLC) was < 0.01 µM, the GI50 (PC-3 prostate) was < 0.01 µM and the TGI (PC-3 prostate) was < 0.01 µM. The GI50 (NCI-H322M lung) was < 0.01 µM, the TGI (NCI-H322M lung) was < 0.01 µM and the GI50 (HOP-92 NSCLC) was < 0.01 µM. For the same molecule, the TGI (HOP-92 NSCLC) was < 0.01 µM, the GI50 (LOX IMVI melanoma) was < 0.01 µM and the TGI (LOX IMVI melanoma) was < 0.01 µM. The GI50 (HOP-62 NSCLC) was < 0.01 µM, the TGI (HOP-62 NSCLC) was < 0.01 µM and the GI50 (MALME-3M melanoma) was < 0.01 µM. For the same molecule, the TGI (MALME-3M melanoma) was < 0.01 µM, the GI50 (OVCAR-5 ovarian) was < 0.01 µM and the TGI (OVCAR-5 ovarian) was < 0.01 µM. The GI50 (HS 578T breast) was < 0.01 µM, the TGI (HS 578T breast) was < 0.01 µM and the GI50 (UACC-257 melanoma) was < 0.01 µM. For the same molecule, the TGI (UACC-257 melanoma) was < 0.01 µM.
